Laboratory results as given in article PMC2806602 (The Journal of neuroscience : the official journal of the …, 2009).
Substitutions are numbered along the chain they refer to.

Assays:
Assay type in all cases: cell-based
GluRδ2^Lc E531A+D535A = target: T1, GluRδ2^Lc E531A+D535A (Rattus norvegicus, UniProt Q63226, A654T/D535A/E531A); assay: Two-electrode voltage-clamp recordings in Xenopus oocytes, GluRδ2^Lc E531A+D535A
T1 sequence (Q63226 24-1007 E531A/D535A/A654T): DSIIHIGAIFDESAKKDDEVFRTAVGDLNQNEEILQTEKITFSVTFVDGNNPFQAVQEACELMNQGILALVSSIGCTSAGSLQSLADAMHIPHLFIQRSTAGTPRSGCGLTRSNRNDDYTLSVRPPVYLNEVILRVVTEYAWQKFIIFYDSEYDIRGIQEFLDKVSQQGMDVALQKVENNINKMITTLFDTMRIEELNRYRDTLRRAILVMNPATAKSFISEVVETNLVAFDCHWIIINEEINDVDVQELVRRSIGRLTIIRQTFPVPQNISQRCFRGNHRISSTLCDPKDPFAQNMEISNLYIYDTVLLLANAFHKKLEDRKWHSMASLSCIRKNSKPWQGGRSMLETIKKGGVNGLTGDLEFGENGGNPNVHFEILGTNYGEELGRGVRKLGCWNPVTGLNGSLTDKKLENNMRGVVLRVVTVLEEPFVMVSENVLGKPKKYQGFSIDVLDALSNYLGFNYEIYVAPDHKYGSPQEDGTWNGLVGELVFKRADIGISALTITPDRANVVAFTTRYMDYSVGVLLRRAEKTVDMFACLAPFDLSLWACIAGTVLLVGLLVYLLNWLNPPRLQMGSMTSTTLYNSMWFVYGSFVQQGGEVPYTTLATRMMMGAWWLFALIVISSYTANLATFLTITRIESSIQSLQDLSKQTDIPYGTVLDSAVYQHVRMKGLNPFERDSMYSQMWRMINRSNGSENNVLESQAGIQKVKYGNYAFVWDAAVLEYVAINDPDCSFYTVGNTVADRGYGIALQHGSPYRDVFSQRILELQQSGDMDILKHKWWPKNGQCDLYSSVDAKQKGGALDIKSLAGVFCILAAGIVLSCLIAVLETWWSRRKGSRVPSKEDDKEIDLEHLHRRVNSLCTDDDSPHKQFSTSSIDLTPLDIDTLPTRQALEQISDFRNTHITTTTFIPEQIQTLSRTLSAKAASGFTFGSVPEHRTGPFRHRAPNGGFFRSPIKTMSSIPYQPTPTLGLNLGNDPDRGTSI

GluRδ2^Lc E531A+D782A = target: T2, GluRδ2^Lc E531A+D782A (Rattus norvegicus, UniProt Q63226, A654T/D782A/E531A); assay: Two-electrode voltage-clamp recordings in Xenopus oocytes, GluRδ2^Lc E531A+D782A
T2 sequence (Q63226 24-1007 E531A/A654T/D782A): T1 sequence (Q63226 24-1007 E531A/D535A/A654T) with A512D, D759A

GluRδ2^Lc P528C+L789C = target: T3, GluRδ2^Lc P528C+L789C (Rattus norvegicus, UniProt Q63226, A654T/L789C/P528C); assay: Two-electrode voltage-clamp recordings in Xenopus oocytes, GluRδ2^Lc P528C+L789C
T3 sequence (Q63226 24-1007 P528C/A654T/L789C): T1 sequence (Q63226 24-1007 E531A/D535A/A654T) with P505C, A508E, A512D, L766C

Row | Compound | Ca^2+ potentiation (relative to baseline) (GluRδ2^Lc E531A+D535A; 3 mM Ca^2+, ± SEM) [fold] | Ca^2+ potentiation (relative to baseline) (GluRδ2^Lc E531A+D782A; 3 mM Ca^2+, ± SEM) [fold] | Ca^2+ potentiation (relative to baseline) (GluRδ2^Lc P528C+L789C; 3 mM Ca^2+, ± SEM) [fold] | D-serine + 0 mM Ca^2+ nH (GluRδ2^Lc E531A+D535A; Hill slope, 0 mM Ca^2+) | D-serine + 3 mM Ca^2+ nH (GluRδ2^Lc E531A+D535A; Hill slope, 3 mM Ca^2+) | D-serine + 0 mM Ca^2+ nH (GluRδ2^Lc E531A+D782A; Hill slope, 0 mM Ca^2+) | D-serine + 3 mM Ca^2+ nH (GluRδ2^Lc E531A+D782A; Hill slope, 3 mM Ca^2+) | D-serine + 0 mM Ca^2+ nH (GluRδ2^Lc P528C+L789C; Hill slope, 0 mM Ca^2+) | D-serine + 3 mM Ca^2+ nH (GluRδ2^Lc P528C+L789C; Hill slope, 3 mM Ca^2+)
1 | [Ca+2] [Ca^2+, calcium] | 1.0 ± 0.04 | 0.9 ± 0.04 | 0.9 ± 0.01 |  |  |  |  |  | 
2 | N[C@H](CO)C(=O)O [D-serine] |  |  |  | 2.2 | 2.2 | 2.3 | 2.4 | 1.1 | 0.8
